Laboratory results from patent US9175305B2, “Mutant hydroxyphenylpyruvate dioxygenase polypeptides and methods of use” (Syngenta Participations AG, priority 2009, dated 2015).
Where “and” joins values, the source holds several entries; their conditions need not be identical. Equal entries are not always repeated. Where two headings read alike, the source gives them in different places.

Experiments:
HPPD SEQ ID NO:24 = HPPD SEQ ID NO:24 (Avena sativa, UniProt A0ACD5V6K6, DEL109-109/L359M); test: biochemical; type: binding; settings: for koff: read-out: koff (k1); for kon: read-out: kon (k2)
Sequence of HPPD SEQ ID NO:24 (A0ACD5V6K6 entry or part of it DEL109-109/L359M): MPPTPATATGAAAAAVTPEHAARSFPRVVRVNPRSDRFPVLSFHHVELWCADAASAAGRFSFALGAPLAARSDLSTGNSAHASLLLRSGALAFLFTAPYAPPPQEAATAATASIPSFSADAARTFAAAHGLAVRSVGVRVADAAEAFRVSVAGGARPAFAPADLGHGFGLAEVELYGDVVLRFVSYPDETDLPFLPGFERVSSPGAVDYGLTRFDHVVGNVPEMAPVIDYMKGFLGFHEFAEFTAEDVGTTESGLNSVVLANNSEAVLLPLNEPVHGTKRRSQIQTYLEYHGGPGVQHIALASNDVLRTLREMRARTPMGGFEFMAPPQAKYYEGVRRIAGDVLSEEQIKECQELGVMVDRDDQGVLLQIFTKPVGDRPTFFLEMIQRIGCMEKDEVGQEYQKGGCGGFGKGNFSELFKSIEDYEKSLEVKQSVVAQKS
Description: (§1) On rates (governed by an association rate constant, kon) for the formation of the enzyme: inhibitor complexes, EI and off rates (governed by a dissociation rate constant, koff) were determined by methods known in the art and essentially as described in Hawkes et al. (2001) Proc. Bright. Crop. Prot. Conf. Weeds, 2:563-568 and in PCT Patent App. Pub. No. WO 02/46387).
(§2) For example, on rates were measured by, at zero time, adding ˜60 pmoles HPPD to 50 mM BisTrisPropane buffer at pH7.0 and at 25° C. containing 25 mM Na ascorbate, 4 μg/ml bovine catalase (Sigma, St. Louis, Mo.) and an excess (˜300 pmoles) of ^14C inhibitor in a total assay volume of 425 μl and, at various time points (0-180 s), quenching the radiolabel binding reaction by addition and rapid mixing of 100 μl ‘cold’ 1 mM structure A. Protein samples quenched at different times were then exchanged into 50 mM BisTrisPropane buffer at pH 7.0 containing 0.1M KCl by rapid chromatography down a NAP5 G25 Sephadex column (GE Healthcare Ltd, Buckinghamshire UK) and the amount of ^14C bound to protein fractions quantified in Optiphase scintillant using a Tri-Carb 2900TR scintillation counter (Perkin Elmer, Wellesley, Mass.). The data were fit according to the scheme below in order to derive the value of the apparent second order rate constant, k2, governing the association rate of enzyme and radiolabelled inhibitor. A range of enzyme and inhibitor concentrations were used. […] Further example methods are described in PCT Patent App. Pub. No. WO 02/46387.
(§3) Off rates (k1 in the scheme below) were derived from exchange rate studies where either the test inhibitor, I, or its exchange partner, J were radiolabelled and the data fit according to the scheme below. As noted in Hawkes et al. (2001) Proc. Bright. Crop. Prot. Conf.
(§4) After 30 minutes the exchange reaction was initiated with addition of 100 μl 1 mM ‘cold’ structure A with thorough mixing, and, immediately, 150 μl were withdrawn and loaded onto a NAP5 column, the protein exchanged into 50 mM BisTrisPropane buffer at pH 7.0 containing 0.1M KCl by rapid (<2 min) chromatography down a NAP5 G25 Sephadex column (GE Healthcare Ltd, Buckinghamshire UK) and the amount of ^14C bound to protein measured by Optiphase scintillant using a Tri-Carb 2900TR scintillation counter (Perkin Elmer, Wellesley, Mass.). Further aliquots were removed and measured in the same way at various times over minutes or hours as required in order to determine the exchange kinetics.
(§5) After 30 minutes the reaction vessel was transferred to ice. After a further 10 minutes at ice temperature the exchange reaction was initiated by addition of 100 μl 1 mM Structure A, with thorough mixing, and 150 μl was withdrawn and loaded onto a NAP5 column in a cold room at ˜5-8° C. in order to quantify the amount of radiolabel remaining bound to the protein at various time from the start of exchange at ice temperature.
(§6) Off rates (k1) of HPPD inhibitors that are not available radiolabelled or that present other measurement problems (for example high levels of background non-specific protein-binding which can be measured as radiolabel binding that persists in the presence of high concentrations of ‘cold’ inhibitor) may be measured indirectly. […] Exemplary methods are also described in PCT Patent App. Pub. No. WO 02/46387.

[1] = system: soybean event 1 (vector 15764) expressing SEQ ID NO:14; test: herbicide spray test on soybean events; type: in vivo; settings: event 1/SEQ#14, V2 growth stage, 14 DAT, average of n=7
Source text: (§7) Each data point represents the average damage score from n=7 replicates.
(§8) These events were used to compare the performance of five 17147 events. Four of these, SF, S8, S7 and S3 had not been preselected for tolerance level (other than to confirm resistance, non-chimerical nature and the presence of the gene) while the remaining event, T0, had been preselected as the most resistant out of five 17147 events in a preliminary field test.
(§9) Plants were in 4×4×4 inch plastic pots and grown under a 15/9 hour light regime (daylight supplemented by artificial light in greenhouses) at a minimum night-time temperature of 18° C. and maximum daytime temperature of 27° C. Soil was regular VBRC mix (1:1 mixture of Vero field soil and Fafard Mix II) where Vero field soil is 98% sand and 2% clay. […] Spray volume was 150 L/ha and the damage scores reflect assessments at 14 DAT.

[2] = system: soybean event 2 (vector 15764) expressing SEQ ID NO:14; test: herbicide spray test on soybean events; type: in vivo; settings: event 2/SEQ#14, V2 growth stage, 14 DAT, average of n=7
Source text: as §7, §8, §9

[3] = system: soybean event S3 (vector 17147) expressing SEQ ID NO:24; test: herbicide spray test on soybean events; type: in vivo; settings: event S3/SEQ#24, V2 growth stage, 14 DAT, average of n=7
Source text: as §7, §8, §9

[4] = system: soybean event S7 (vector 17147) expressing SEQ ID NO:24; test: herbicide spray test on soybean events; type: in vivo; settings: event S7/SEQ#24, V2 growth stage, 14 DAT, average of n=7
Source text: as §7, §8, §9

[5] = system: soybean event S8 (vector 17147) expressing SEQ ID NO:24; test: herbicide spray test on soybean events; type: in vivo; settings: event S8/SEQ#24, V2 growth stage, 14 DAT, average of n=7
Source text: as §7, §8, §9

[6] = system: soybean event SF (vector 17147) expressing SEQ ID NO:24; test: herbicide spray test on soybean events; type: in vivo; settings: event SF/SEQ#24, V2 growth stage, 14 DAT, average of n=7
Source text: as §7, §8, §9

[7] = system: soybean event T0 (vector 17147) expressing SEQ ID NO:24; test: herbicide spray test on soybean events; type: in vivo; settings: event T0/SEQ#24, V2 growth stage, 14 DAT, average of n=7
Source text: as §7, §8, §9

Jack w/t = test: herbicide spray test on soybean; type: in vivo; settings: V2 growth stage, 14 DAT, average of n=7
Description: as §7, §9

HPPD SEQ ID NO:14 = HPPD SEQ ID NO:14 (Avena sativa, UniProt A0ACD5V6K6, DEL109-109); test: biochemical; type: binding; settings: for Kd/Km ratio: HPPD SEQ ID NO:14
Sequence of HPPD SEQ ID NO:14 (A0ACD5V6K6 entry or part of it DEL109-109): as the sequence (A0ACD5V6K6 entry or part of it DEL109-109/L359M) above, with M358L counted along it
Description: as §1, §2, §3, §4, §5, §6

HPPD SEQ ID NO:15 = HPPD SEQ ID NO:15 (Avena sativa, UniProt A0ACD5V6K6, DEL109-109/Q298A); test: biochemical; type: binding; settings: for koff: read-out: koff (k1)
Sequence of HPPD SEQ ID NO:15 (A0ACD5V6K6 entry or part of it DEL109-109/Q298A): as the sequence (A0ACD5V6K6 entry or part of it DEL109-109/L359M) above, with Q297A, M358L counted along it
Description: as §1, §2, §3, §4, §5, §6

HPPD SEQ ID NO:18 = HPPD SEQ ID NO:18 (Avena sativa, UniProt A0ACD5V6K6, DEL109-109/I285T); test: biochemical; type: binding; settings: for koff: read-out: koff (k1)
Sequence of HPPD SEQ ID NO:18 (A0ACD5V6K6 entry or part of it DEL109-109/I285T): as the sequence (A0ACD5V6K6 entry or part of it DEL109-109/L359M) above, with I284T, M358L counted along it
Description: as §1, §2, §3, §4, §5, §6

HPPD SEQ ID NO:21 = HPPD SEQ ID NO:21 (Avena sativa, UniProt A0ACD5V6K6, DEL109-109/I285V); test: biochemical; type: binding; settings: for koff: read-out: koff (k1)
Sequence of HPPD SEQ ID NO:21 (A0ACD5V6K6 entry or part of it DEL109-109/I285V): as the sequence (A0ACD5V6K6 entry or part of it DEL109-109/L359M) above, with I284V, M358L counted along it
Description: as §1, §2, §3, §4, §5, §6

HPPD SEQ ID NO:22 = HPPD SEQ ID NO:22 (Avena sativa, UniProt A0ACD5V6K6, DEL109-109/L256M); test: biochemical; type: binding; settings: for koff: read-out: koff (k1)
Sequence of HPPD SEQ ID NO:22 (A0ACD5V6K6 entry or part of it DEL109-109/L256M): as the sequence (A0ACD5V6K6 entry or part of it DEL109-109/L359M) above, with L255M, M358L counted along it
Description: as §1, §2, §3, §4, §5, §6

HPPD SEQ ID NO:23 = HPPD SEQ ID NO:23 (Avena sativa, UniProt A0ACD5V6K6, A242W/DEL109-109); test: biochemical; type: binding; settings: for koff: read-out: koff (k1)
Sequence of HPPD SEQ ID NO:23 (A0ACD5V6K6 entry or part of it DEL109-109/A242W): as the sequence (A0ACD5V6K6 entry or part of it DEL109-109/L359M) above, with A241W, M358L counted along it
Description: as §1, §2, §3, §4, §5, §6

[8] = 25° C., direct, radiochemical method, average and individual experiments, read-out: Off rate k1
[9] = 25° C., direct, radiochemical method, average and individual experiments, read-out: On rate k2
[10] = Kd, HPPD variant SEQ ID# 14, 25° C.
[11] = Kd, estimated from on and off rates, 25° C.

With `CS(=O)(=O)c1cc(C(F)(F)F)ccc1C(=O)c1cnoc1C1CC1` [IFT, isoxaflutole] the “SEQ ID NO:24 superior to SEQ ID NO:14 (in vitro, in particular off rate data)” value (HPPD SEQ ID NO:24) was 2.3 fold, the “% dam.” value ([1]; IFT 420 g/ha) was 26.4% and the “% dam.” value ([2]; IFT 420 g/ha) was 42.5%. The “% dam.” value ([3]; IFT 420 g/ha) was 30%, the “% dam.” value ([4]; IFT 420 g/ha) was 20.7% and the “% dam.” value ([5]; IFT 420 g/ha) was 31.3%. For the same molecule, the “% dam.” value ([6]; IFT 420 g/ha) was 40%, the “% dam.” value ([7]; IFT 420 g/ha) was 19.3% and the “% dam.” value (Jack w/t; IFT 420 g/ha) was 96.1%.
In the case of `CS(=O)(=O)c1ccc(C(=O)C2C(=O)CCCC2=O)c(Cl)c1COCC(F)(F)F` [E, tembotrione], the Kd (HPPD SEQ ID NO:14) is reported as 0.321 nM, the “Off rate k1” value (HPPD SEQ ID NO:14; 25° C., indirect radiochemical method, average and individual experiments) is reported as 5.5e-05 s⁻¹ and 2.85e-05 s⁻¹ and the Kd/Km ratio (HPPD SEQ ID NO:14) is reported as 0.000059. The koff (HPPD SEQ ID NO:14; read-out: Off rate k1, 25° C., indirect radiochemical method, average and individual experiments) was 4.17e-05 s⁻¹, the kon (HPPD SEQ ID NO:14; read-out: On rate k2) was 130000 M⁻¹ s⁻¹ and the “SEQ ID NO:24 superior to SEQ ID NO:14 (in vitro, in particular off rate data)” value (HPPD SEQ ID NO:24; relative to SEQ ID NO:14) was “neutral”. For the same molecule, the “% dam.” value ([1]; E 368 g/ha) was 36.4%, the “% dam.” value ([2]; E 368 g/ha) was 52.1% and the “% dam.” value ([3]; E 368 g/ha) was 51.4%. The “% dam.” value ([4]; E 368 g/ha) was 41.4%, the “% dam.” value ([5]; E 368 g/ha) was 80% and the “% dam.” value ([6]; E 368 g/ha) was 97.1%. For the same molecule, the “% dam.” value ([7]; E 368 g/ha) was 39.3% and the “% dam.” value (Jack w/t; E 368 g/ha) was 84.3%.
`CS(=O)(=O)c1cc(C(F)(F)F)ccc1C(=O)C(C#N)C(=O)C1CC1` (centres unmarked) [Structure D] was tested, and the “Off rate k1” value (HPPD SEQ ID NO:14; 25° C., direct, radiochemical method, average and individual experiments) was 4.17e-05 s⁻¹ and 3.75e-05 s⁻¹, the koff (HPPD SEQ ID NO:14; [8]) was 3.96e-05 s⁻¹ and the kon (HPPD SEQ ID NO:14; [9]) was 32000 M⁻¹ s⁻¹. The kon (HPPD SEQ ID NO:14; 25° C., enzyme activity-based method, read-out: On rate, activity-based method) was 32000 M⁻¹ s⁻¹, the Kd/Km ratio (HPPD SEQ ID NO:14) was 0.00023 and the Kd (HPPD SEQ ID NO:14; [10]) was 1.2 nM. The Kd (HPPD SEQ ID NO:14; [11]) was 1.23 nM, the koff (HPPD SEQ ID NO:14; read-out: koff (k1)) was 3.96e-05 s⁻¹ and the kon (HPPD SEQ ID NO:14; read-out: kon (k2)) was 32000 M⁻¹ s⁻¹. The koff (HPPD SEQ ID NO:15) was 2.37e-05 s⁻¹, the koff (HPPD SEQ ID NO:18) was 3.96e-05 s⁻¹ and the koff (HPPD SEQ ID NO:21) was 3.96e-05 s⁻¹. It also gave a koff (HPPD SEQ ID NO:22) of 2.37e-05 s⁻¹, a koff (HPPD SEQ ID NO:23) of 2.37e-05 s⁻¹ and a Kd (HPPD SEQ ID NO:24) of 2.9 nM. For the same molecule, the koff (HPPD SEQ ID NO:24) was 9.18e-05 s⁻¹ and the kon (HPPD SEQ ID NO:24) was 32000 M⁻¹ s⁻¹.
`CCOc1c(S(C)(=O)=O)ccc(C(=O)C2C(=O)CC(C)CC2=O)c1Cl` (centres unmarked) [Structure A] was tested, and the koff (HPPD SEQ ID NO:14; [8]) was 1.67e-05 s⁻¹, the kon (HPPD SEQ ID NO:14; [9]) was 85000 M⁻¹ s⁻¹ and the Kd/Km ratio (HPPD SEQ ID NO:14) was 0.000036. The Kd (HPPD SEQ ID NO:14; [10]) was 0.2 nM, the Kd (HPPD SEQ ID NO:14; [11]) was 0.196 nM and the koff (HPPD SEQ ID NO:14; read-out: koff (k1)) was 1.67e-05 s⁻¹. The kon (HPPD SEQ ID NO:14; read-out: kon (k2)) was 85000 M⁻¹ s⁻¹, the Kd (HPPD SEQ ID NO:15) was 0.95 nM and the koff (HPPD SEQ ID NO:15) was 3.33e-05 s⁻¹. For the same molecule, the kon (HPPD SEQ ID NO:15; read-out: kon (k2)) was 35000 M⁻¹ s⁻¹, the Kd (HPPD SEQ ID NO:18) was 0.4 nM and the koff (HPPD SEQ ID NO:18) was 1.67e-05 s⁻¹. For the same molecule, the kon (HPPD SEQ ID NO:18; read-out: kon (k2)) was 42000 M⁻¹ s⁻¹, the Kd (HPPD SEQ ID NO:21) was 0.2 nM and the koff (HPPD SEQ ID NO:21) was 1.67e-05 s⁻¹. For the same molecule, the kon (HPPD SEQ ID NO:21; read-out: kon (k2)) was 85000 M⁻¹ s⁻¹, the Kd (HPPD SEQ ID NO:22) was 0.13 nM and the koff (HPPD SEQ ID NO:22) was 1.08e-05 s⁻¹. It also gave a kon (HPPD SEQ ID NO:22; read-out: kon (k2)) of 85000 M⁻¹ s⁻¹, a Kd (HPPD SEQ ID NO:23) of 0.33 nM and a koff (HPPD SEQ ID NO:23) of 2.83e-05 s⁻¹. For the same molecule, the kon (HPPD SEQ ID NO:23; read-out: kon (k2)) was 85000 M⁻¹ s⁻¹, the Kd (HPPD SEQ ID NO:24) was 0.27 nM and the koff (HPPD SEQ ID NO:24) was 2.3e-05 s⁻¹. For the same molecule, the kon (HPPD SEQ ID NO:24) was 85000 M⁻¹ s⁻¹.
